How the values were obtained:
[1] = target: T1, isolated kinase domain of the human FLT3 receptor (a.a. 571-993) (Homo sapiens, UniProt P36888); assay: FLT3 fluorescence polarization kinase assay; format: biochemical
T1 construct: human FLT3 receptor (a.a. 571-993)
T1 sequence (P36888 571-993): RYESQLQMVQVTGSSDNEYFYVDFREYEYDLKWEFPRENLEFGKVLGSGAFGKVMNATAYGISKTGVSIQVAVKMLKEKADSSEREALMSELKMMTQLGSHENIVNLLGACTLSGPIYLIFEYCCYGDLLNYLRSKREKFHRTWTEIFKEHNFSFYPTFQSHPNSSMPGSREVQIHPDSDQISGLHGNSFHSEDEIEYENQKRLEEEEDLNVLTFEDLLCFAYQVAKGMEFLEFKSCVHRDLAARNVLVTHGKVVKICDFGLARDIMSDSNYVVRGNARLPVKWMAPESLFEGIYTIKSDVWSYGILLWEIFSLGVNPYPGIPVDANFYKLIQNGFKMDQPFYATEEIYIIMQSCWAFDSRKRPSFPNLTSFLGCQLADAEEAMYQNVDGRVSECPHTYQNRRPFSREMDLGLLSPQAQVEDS

[2] = target: T2, wild-type FLT3 phosphorylation in Baf3 FLT3 cells (Homo sapiens, UniProt P36888); assay: Cell-based FLT3 receptor ELISA; details: FLT ligand-induced FLT3 phosphorylation
T2 construct: host or cells: Baf3 (murine B cell lymphoma line)
T2 sequence (P36888 27-993): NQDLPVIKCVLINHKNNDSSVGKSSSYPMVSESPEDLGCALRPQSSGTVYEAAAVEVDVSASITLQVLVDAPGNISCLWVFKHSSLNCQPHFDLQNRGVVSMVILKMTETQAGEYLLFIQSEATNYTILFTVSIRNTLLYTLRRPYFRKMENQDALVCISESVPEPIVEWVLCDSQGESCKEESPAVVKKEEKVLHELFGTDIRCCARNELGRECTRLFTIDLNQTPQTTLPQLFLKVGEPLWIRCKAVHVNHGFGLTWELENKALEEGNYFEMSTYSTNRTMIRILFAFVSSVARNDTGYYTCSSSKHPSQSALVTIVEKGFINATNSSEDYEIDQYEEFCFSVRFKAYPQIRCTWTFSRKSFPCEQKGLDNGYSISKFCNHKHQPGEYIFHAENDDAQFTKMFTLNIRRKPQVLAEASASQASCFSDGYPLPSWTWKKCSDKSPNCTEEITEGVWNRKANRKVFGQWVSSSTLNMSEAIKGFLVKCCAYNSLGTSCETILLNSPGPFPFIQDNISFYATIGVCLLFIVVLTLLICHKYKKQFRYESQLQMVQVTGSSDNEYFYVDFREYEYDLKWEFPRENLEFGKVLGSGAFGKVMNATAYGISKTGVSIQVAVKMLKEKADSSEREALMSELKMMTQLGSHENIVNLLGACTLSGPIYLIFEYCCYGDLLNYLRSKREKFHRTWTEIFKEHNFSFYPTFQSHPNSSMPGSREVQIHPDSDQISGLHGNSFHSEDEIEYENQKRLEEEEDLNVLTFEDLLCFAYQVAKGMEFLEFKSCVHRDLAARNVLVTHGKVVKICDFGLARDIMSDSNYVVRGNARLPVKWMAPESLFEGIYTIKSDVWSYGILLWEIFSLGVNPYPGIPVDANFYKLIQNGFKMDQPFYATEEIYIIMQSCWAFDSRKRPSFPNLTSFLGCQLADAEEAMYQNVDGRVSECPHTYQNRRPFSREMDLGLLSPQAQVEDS
How it was run: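 Baf3 cells stably expressing wild-type human FLT3 were starved 16 h in 0.5% serum with 0.01 ng/mL IL-3, given compound for 1 h, then stimulated with 100 ng/mL FLT ligand for 10 min at 37 °C. Lysates were captured on anti-FLT3 plates and probed with HRP anti-phosphotyrosine (4G10), read by chemiluminescence. IC50 came from sigmoidal variable-slope fits of triplicates.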

SMILES: COc1cc2ncc(C#N)c(N3CCC(NC(=O)Nc4ccc(C(C)C)cc4)C3)c2cc1OC (stereo not drawn) [Compound 26, 1-[1-(3-Cyano-6,7-dimethoxy-quinolin-4-yl)-pyrrolidin-3-yl]-3-(4-isopropyl-phenyl)-urea]
- IC50 [1]: 433 nM
- IC50 [2]: 331 nM

SMILES: COc1cc2ncnc(N3CCCC(NC(=O)Nc4ccc(C(C)C)cc4)C3)c2cc1OC (stereo not drawn) [Compound 28, 1-[1-(6,7-Dimethoxy-quinazolin-4-yl)-piperidin-3-yl]-3-(4-isopropyl-phenyl)-urea]
- IC50 [1]: 510 nM
- IC50 [2]: 1900 nM

SMILES: COc1cc2ncc(C#N)c(N3CCC(NC(=O)Nc4ccc(OC(C)C)cc4)C3)c2cc1OC (stereo not drawn) [Compound 29, 1-[1-(3-Cyano-6,7-dimethoxy-quinolin-4-yl)-pyrrolidin-3-yl]-3-(4-isopropoxy-phenyl)-urea]
- IC50 [1]: 531 nM
- IC50 [2]: 3100 nM

SMILES: COc1cc2ncnc(N3CCCC(OC(=O)Nc4ccc(C(C)C)cc4)C3)c2cc1OC (stereo not drawn) [Compound 31, (4-Isopropyl-phenyl)-carbamic acid 1-[1-(6,7-dimethoxy-quinazolin-4-yl)-piperidin-3-yl]ester]
- IC50 [1]: 670 nM
- IC50 [2]: 1100 nM

SMILES: COc1cc2ncc(C#N)c(N3CCC(OC(=O)Nc4ccc(OC(C)C)cc4)C3)c2cc1OC (stereo not drawn) [Compound 32, (4-Isopropoxy-phenyl)-carbamic acid 1-(3-cyano-6,7-dimethoxy-quinolin-4-yl)-pyrrolidin-3-yl ester]
- IC50 [1]: 868 nM
- IC50 [2]: 1200 nM

SMILES: COc1cc2ncnc(N3CCCCC3COC(=O)Nc3ccc(C(C)C)cc3)c2cc1OC (stereo not drawn) [Compound 33, (4-Isopropyl-phenyl)-carbamic acid 1-(6,7-dimethoxy-quinazolin-4-yl)-piperidin-2-ylmethyl ester]
- IC50 [1]: 1000 nM
- IC50 [2]: 559 nM

SMILES: COc1cc2ncnc(N3CCC(NC(=O)Cc4ccc(C(C)C)cc4)C3)c2cc1OC (stereo not drawn) [Compound 35, N-[1-(6,7-Dimethoxy-quinazolin-4-yl)-pyrrolidin-3-yl]-2-(4-isopropyl-phenyl)-acetamide]
- IC50 [1]: 1300 nM
- IC50 [2]: > 3000 nM

SMILES: COc1cc2ncnc(N3CCC(N(C)C(=O)Nc4ccc(OC(C)C)cc4)C3)c2cc1OC (stereo not drawn) [Compound 36, 1-[1-(6,7-Dimethoxy-quinazolin-4-yl)-pyrrolidin-3-yl]-3-(4-isopropoxy-phenyl)-1-methyl-urea]
- IC50 [1]: 1680 nM
- IC50 [2]: 1300 nM

SMILES: COc1cc2ncc(C#N)c(N3CCC(OC(=O)Nc4ccc(C(C)C)cc4)C3)c2cc1OC (stereo not drawn) [Compound 37, (4-Isopropyl-phenyl)-carbamic acid 1-(3-cyano-6,7-dimethoxy-quinolin-4-yl)-pyrrolidin-3-yl ester]
- IC50 [1]: 2140 nM
- IC50 [2]: 1100 nM
